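Method: 48-hour compound exposure of cells in 96-well plates, five concentrations, linear interpolation of endpoints. The concentration for 50% growth inhibition is given as GI50.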 The source made the active and inactive calls. No stated cut-off is given here; in the data, active = GI50 up to about 1.1 µM and inactive = higher. Where only a bound is given, the exact number is not on record here.

Assay in all cases: inhibition of tumour cell growth, NCI panel, 48 h
The subject of experiment [1] is KM12.
The subject of experiment [2] is NCI-H460.
Experiment [3] has as its system NCI-H522.
Experiment [4] relates to HL-60.
The test system of experiment [5] is SR.
Experiment [6] concerns LOX IMVI.
Experiment [7] deals with TK-10.
Experiment [8] concerns CCRF-CEM.
Experiment [9] relates to UO-31.
The subject of experiment [10] is EKVX.
Experiment [11] relates to 786-0.
In experiment [12] the test system is SN12C.
The test system of experiment [13] is SF-295.
In experiment [14] the test system is ACHN.
Experiment [15] relates to UACC-257.
Experiment [16] concerns MDA-MB-435.
In experiment [17] the test system is HCT-116.
In experiment [18] the test system is M14.
Experiment [19] relates to T47D.
Experiment [20] concerns OVCAR-3.

With `CN(C)Cc1cc(Cl)c(O)c(CN(C)C)c1`, the GI50 in experiment [1], in experiment [2], in [3], in [4], in [5] and in experiment [6] was > 100 µM (inactive) throughout. Further, the GI50 in experiment [7], in experiment [8], in [9], in experiment [10], in experiment [11] and in [12] was > 100 µM (inactive) throughout. Further, the GI50 in [13], in experiment [14], in [15], in [16], in [17] and in experiment [18] was > 100 µM (inactive) throughout. Besides, the GI50 in experiment [19] and in experiment [20] was > 100 µM (inactive) in each case.

Take `CC(C)=CCC[C@@H](C)C1=C(Nc2ccccc2F)C(=O)C(C)=C(O)C1=O`: the GI50 in experiment [1] is 4.16 µM (inactive); in experiment [2] it was 3.92 µM (inactive); in [3] it was 4.18 µM (inactive); in [4] it was 1 µM (active); in [5] it was 11 µM (inactive); in experiment [6], 4.78 µM (inactive). Further, the GI50 in experiment [7] is 5.82 µM (inactive); in [8] it was 0.869 µM (active); in [9] it was 4.45 µM (inactive); in experiment [10], 5.12 µM (inactive); in experiment [11] it was 5.65 µM (inactive); in experiment [12], 6.97 µM (inactive). For the same compound, the GI50 in experiment [13] is 3.65 µM (inactive); in experiment [14], 3.5 µM (inactive); in experiment [15] it was 10.1 µM (inactive); in experiment [16], 6.22 µM (inactive); in experiment [17] it was 4.58 µM (inactive); in experiment [18], 14.2 µM (inactive). Besides, the GI50 is 13.6 µM (inactive) in experiment [19] and 4.51 µM (inactive) in experiment [20].

As to `CN1CCN(c2cc3[nH]c(-c4ccc(Cl)cc4)nc3cc2F)CC1`, the GI50 in experiment [1] was 10.8 µM (inactive); in experiment [2], 11.5 µM (inactive); in experiment [3], 15.6 µM (inactive); in [4], > 10 µM (inactive); in [5] it was 24.1 µM (inactive); in experiment [6], 10.5 µM (inactive). The GI50 in experiment [7] was 4.37 µM (inactive); in [8], 13.4 µM (inactive); in [9] it was 7.1 µM (inactive); in [10], 22.2 µM (inactive); in experiment [11] it was 20.1 µM (inactive); in [12] it was 26.7 µM (inactive). In addition, the GI50 is 15.2 µM (inactive) in experiment [13]; 12.5 µM (inactive) in experiment [14]; 10.8 µM (inactive) in experiment [15]; 11.4 µM (inactive) in experiment [16]; 13.8 µM (inactive) in experiment [17]; 2.84 µM (inactive) in experiment [18]. In addition, the GI50 in [19] was 19.1 µM (inactive); in experiment [20], 11.8 µM (inactive).

Turning to `O=c1[nH]nc(-c2ccc([N+](=O)[O-])cc2)n1/N=C/c1ccc([N+](=O)[O-])cc1`, the GI50 is 55.3 µM (inactive) in experiment [1]; 30.4 µM (inactive) in experiment [2]; 73.3 µM (inactive) in experiment [3]; 30.4 µM (inactive) in experiment [4]; 52 µM (inactive) in experiment [5]; 0.483 µM (active) in [6]. Also, the GI50 in experiment [7] was > 100 µM (inactive); in [8], 45 µM (inactive); in [9], > 100 µM (inactive); in experiment [10], > 100 µM (inactive); in experiment [11], 78.7 µM (inactive); in [12] it was > 100 µM (inactive). Further, the GI50 in experiment [13] is > 100 µM (inactive); in experiment [14] it was > 100 µM (inactive); in experiment [15], > 100 µM (inactive); in [16], 99.5 µM (inactive); in experiment [17] it was > 100 µM (inactive); in experiment [18], > 100 µM (inactive). In addition, the GI50 in [19] and in experiment [20] was > 100 µM (inactive) each time.

`CC(C)(Oc1ccccc1)C(=O)Sc1c(-c2ccccc2)c(=O)n(-c2ccccc2)c(=S)n1-c1ccccc1`: the GI50 in experiment [1] is 31.8 µM (inactive); in experiment [2], 27.3 µM (inactive); in experiment [3], 21.9 µM (inactive); in experiment [4] it was 25.9 µM (inactive); in experiment [5] it was 22.1 µM (inactive); in experiment [6], 49.5 µM (inactive). The GI50 is 92.5 µM (inactive) in experiment [7]; 25.9 µM (inactive) in [8]; 65.3 µM (inactive) in [9]; > 100 µM (inactive) in experiment [10]; 31.2 µM (inactive) in experiment [11]; 51.3 µM (inactive) in experiment [12]. The GI50 is 59.8 µM (inactive) in experiment [13]; 33.1 µM (inactive) in experiment [14]; > 100 µM (inactive) in experiment [15]; 20.6 µM (inactive) in experiment [16]; 50.1 µM (inactive) in experiment [17]; 27 µM (inactive) in experiment [18]. Also, the GI50 in experiment [19] was 64.3 µM (inactive); in [20], 32 µM (inactive).

For `C/C=C(\C)C(=O)OC1C(C)=C2C(C1OC(=O)CCCC)C(C)(OC(C)=O)CC(OC(=O)CCCC)C1(O)C2OC(=O)C1(C)O` (stereo not given), the GI50 in experiment [1] was 0.776 µM (active); in experiment [2] it was 0.792 µM (active); in [3], 0.362 µM (active); in [4] it was 0.0324 µM (active); in [5], 0.951 µM (active); in [6] it was 0.439 µM (active). Also, the GI50 in experiment [7] was 13 µM (inactive); in experiment [8] it was 1.74 µM (inactive); in [9], 15.4 µM (inactive); in experiment [10], 8.22 µM (inactive); in experiment [11] it was 0.982 µM (active); in experiment [12], 2.59 µM (inactive). The GI50 in experiment [13] was 0.802 µM (active); in experiment [14] it was 4.8 µM (inactive); in [15], 9.46 µM (inactive); in experiment [16], 0.501 µM (active); in experiment [17] it was 0.525 µM (active); in experiment [18] it was 0.452 µM (active). Further, the GI50 in experiment [19] is 6.7 µM (inactive); in experiment [20] it was 0.925 µM (active).

Consider `CN(C)CCNc1ccc2nnn3c4ccccc4c(=O)c1c23`, for which the GI50 was 3.85 µM (inactive) in experiment [1]; 2.25 µM (inactive) in experiment [2]; 2.64 µM (inactive) in experiment [3]; 3.44 µM (inactive) in experiment [4]; 2.34 µM (inactive) in experiment [5]; 1.62 µM (inactive) in experiment [6]. In addition, the GI50 in experiment [7] is 3.31 µM (inactive); in [8], 2.27 µM (inactive); in experiment [9], 1.32 µM (inactive); in experiment [10], 3.78 µM (inactive); in [11] it was 3.27 µM (inactive); in experiment [12] it was 2.96 µM (inactive). Moreover, the GI50 was 3.57 µM (inactive) in [13]; 1.22 µM (inactive) in [14]; 3.46 µM (inactive) in experiment [15]; 3.44 µM (inactive) in [16]; 1.56 µM (inactive) in experiment [17]; 3.07 µM (inactive) in [18]. Besides, the GI50 in [19] was 6 µM (inactive); in experiment [20], 3.36 µM (inactive).

For the origin of these results see ChEMBL document CHEMBL1201862, “PubChem BioAssay data set” (2004).
